Results as given in EP1056700B1, “MEDICINAL USES OF PHENYLALKANOLS AND DERIVATES” (ZingoTX Pty Ltd, priority 1997, dated 1999).
Entries after “also recorded” stand apart in the source; their conditions may differ.

Experiments:
[1] = test system: rabbit platelet-rich plasma; assay: Antiplatelet aggregation screen with arachidonic acid in rabbit platelet-rich plasma; assay type: cell-based
[2] = Acute toxicity in mice for 3 days; assay type: in vivo
Excerpt: However, no toxicity was shown towards mice for dose by the oral route. […] Brine shrimp toxicity for gingerols and gingerol analogues tested ranged from low to moderate.

[3] = test system: brine shrimp (Artemia salina Leach); assay: Brine shrimp toxicity bioassay; assay type: in vivo; details: result in words
Bleeding time in mice = assay type: in vivo
NK-1 receptor = biological target: T1, NK-1 receptor (Cavia porcellus, UniProt P30547); assay: Neurokinin-1 binding with [^3H]Substance P on guinea pig submaxillary membrane
T1 construct: tested on guinea pig submaxillary membrane; from tissue; host or cells: guinea pig submaxillary membrane
T1 sequence (P30547 whole entry): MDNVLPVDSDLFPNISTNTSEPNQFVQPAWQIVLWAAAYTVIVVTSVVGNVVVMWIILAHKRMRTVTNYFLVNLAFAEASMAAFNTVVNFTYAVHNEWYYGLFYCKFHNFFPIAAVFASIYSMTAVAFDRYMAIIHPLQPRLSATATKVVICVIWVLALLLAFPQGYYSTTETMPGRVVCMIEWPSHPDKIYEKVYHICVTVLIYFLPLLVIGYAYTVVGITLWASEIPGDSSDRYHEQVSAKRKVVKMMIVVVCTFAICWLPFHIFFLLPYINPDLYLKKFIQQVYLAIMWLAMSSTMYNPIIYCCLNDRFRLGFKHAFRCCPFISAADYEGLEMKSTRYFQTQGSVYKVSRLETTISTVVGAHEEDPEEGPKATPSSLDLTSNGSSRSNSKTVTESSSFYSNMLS
Method: 3-hydroxy-1-(4-hydroxy-3-methoxyphenyl)dodecane [3.93], was tested on guinea pig submaxillary membrane for neurokinin-1 (NK-1) antagonist activity with tritium labelled [^3H]Substance P and found to have relatively potent inhibition of the binding of Substance P to NK-1 receptor. […] It gave approximately 80% inhibition at 30 µM.

5-lipoxygenase = biological target: T2, 5-lipoxygenase (Rattus norvegicus, UniProt P12527); assay: 5-lipoxygenase assay (MDS PANLABS), RBL-1 cells, 5-HETE radioimmunoassay; assay type: biochemical; details: arachidonic acid as substrate
T2 construct: 5-lipoxygenase activity from rat basophilic leukemia cells (RBL-1); host or cells: RBL-1 (rat basophilic leukemia)
T2 sequence (P12527 whole entry): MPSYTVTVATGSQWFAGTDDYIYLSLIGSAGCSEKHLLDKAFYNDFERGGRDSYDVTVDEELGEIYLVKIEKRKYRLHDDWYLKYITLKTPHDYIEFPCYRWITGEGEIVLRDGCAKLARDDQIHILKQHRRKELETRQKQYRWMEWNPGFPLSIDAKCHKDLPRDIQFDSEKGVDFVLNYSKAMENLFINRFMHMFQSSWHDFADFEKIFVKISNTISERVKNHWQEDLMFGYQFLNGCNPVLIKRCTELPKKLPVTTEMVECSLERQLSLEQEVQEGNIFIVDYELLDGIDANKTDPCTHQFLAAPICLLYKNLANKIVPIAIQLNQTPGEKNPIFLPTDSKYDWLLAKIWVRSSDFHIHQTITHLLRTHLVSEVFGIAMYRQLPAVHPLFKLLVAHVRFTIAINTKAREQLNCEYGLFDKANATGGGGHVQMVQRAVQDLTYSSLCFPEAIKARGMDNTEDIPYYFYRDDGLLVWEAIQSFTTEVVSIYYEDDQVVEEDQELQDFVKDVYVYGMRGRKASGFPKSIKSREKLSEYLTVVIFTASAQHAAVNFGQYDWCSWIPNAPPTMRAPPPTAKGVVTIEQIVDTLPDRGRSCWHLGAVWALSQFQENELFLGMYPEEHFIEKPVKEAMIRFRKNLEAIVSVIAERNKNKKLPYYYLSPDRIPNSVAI
Method: 3-hydroxy-1-(4-hydroxy-3-methoxyphenyl)dodecane [3.93] was tested at MDS PANLABS: Pharmacology Services (Taiwan) for 5-lipoxygenase activity from rat basophilic leukemia cells (RBL-1) with arachidonic acid as substrate. The inhibitory activity of the substance was quantitated, using radioimmunoassay, from the formation of 5-HETE. At 10 µM, the substance gave approximate 90% inhibition of 5-lipoxygenase activity.

diaphragm rat = assay: Cardiovascular and neuro-effector junction activities: diaphragm, rat
Excerpt: The cardiotonic action of 1-(4-hydroxy-3-methoxyphenyl)dodecan-3-ol [3.93] was confirmed from independent studies, carried out at our request as part of our agreement with Johnson & Johnson Research Ltd (J&J), by Prof. James Angus from the University of Melbourne. […] A tachycardial effect of the substance on guinea pig atria was, however, observed at significant rate, 50-60% of isoprenaline Emax and the response was not α- or β-adrenoceptor mediated. […] Cardiovascular and neuro-effector junction activities of gingerol analogues

cardiac Purkinje fibres = assay: Cardiac electrophysiology on Purkinje fibres; design: species or system dog; details: for effect on rate of depolarization, amplitude of action potential and duration of action potential at 50% and 90% repolarization: up to 10 µM
Method: The basic cardiac electrophysiological properties were assessed using cardiac Purkinje fibres obtained from adult mongrel dogs.
Electrophysiology was carried out on dog heart purkinje fibre to test for potential arrhythmia. […] At high concentration (50 µM), however, [8]-gingerol reduced approximate 80% and 50% of action potential duration at 50% and 90% repolarisations respectively. Whereas the analogue reduced 75% and 30% respectively.

[4] = dogs, 0.3 mg / kg, i.v.; cited from earlier work

Row | SMILES | Action Potential Amplitude (cardiac Purkinje fibres; 5 µM) | Action Potential Duration 50% repolarisation (cardiac Purkinje fibres; 5 µM) | Action Potential Duration 90% repolarisation (cardiac Purkinje fibres; 5 µM) | Maximum rate of depolarisation (cardiac Purkinje fibres; 5 µM) | Action Potential Amplitude (cardiac Purkinje fibres; 10 µM) | Action Potential Duration 50% repolarisation (cardiac Purkinje fibres; 10 µM) | Action Potential Duration 90% repolarisation (cardiac Purkinje fibres; 10 µM) | Maximum rate of depolarisation (cardiac Purkinje fibres; 10 µM) | Action Potential Amplitude (cardiac Purkinje fibres; 20 µM) | Action Potential Duration 50% repolarisation (cardiac Purkinje fibres; 20 µM) | Action Potential Duration 90% repolarisation (cardiac Purkinje fibres; 20 µM) | Maximum rate of depolarisation (cardiac Purkinje fibres; 20 µM) | Action Potential Amplitude (cardiac Purkinje fibres; 30 µM) | Action Potential Duration 50% repolarisation (cardiac Purkinje fibres; 30 µM) | Action Potential Duration 90% repolarisation (cardiac Purkinje fibres; 30 µM) | Maximum rate of depolarisation (cardiac Purkinje fibres; 30 µM) | Action Potential Amplitude (cardiac Purkinje fibres; 40 µM) | Action Potential Duration 50% repolarisation (cardiac Purkinje fibres; 40 µM) | Action Potential Duration 90% repolarisation (cardiac Purkinje fibres; 40 µM) | Maximum rate of depolarisation (cardiac Purkinje fibres; 40 µM) | also measured
1 | CCCCCCCCCC(O)CCc1ccc(O)c(OC)c1 (stereo not shown) [1-(4-hydroxy-3-methoxyphenyl)dodecan-3-ol] | – | – | – | – | – | – | – | – | – | – | – | – | – | – | – | – | – | – | – | – | platelet function via adenosine diphosphate or thromboxane A2 mechanisms [1]: did not affect; antiplatelet aggregation activity compared with the indomethacin reference compound ([1]; arachidonic acid as substrate): three time more potent; Acute toxicity ([2]; mice, 3 days, intraperitoneal administration): slight decrease in spontaneous activity, response to touch and limb tone; Acute toxicity ([2]; mouse, in vivo, po): no toxicity; toxicity towards brine shrimp [3]: low toxicity; effect on bleeding time (Bleeding time in mice): little or no effect; inhibition at 30 µM (NK-1 receptor): ~80%; inhibition at 10 µM (5-lipoxygenase): ~90%; diaphragm rat ↓ (diaphragm rat; 10^-5 M (vehicle?)): ↓10% 10^-5 M (vehicle?)
2 | CCCCCCCC(O)CC(=O)c1ccc(O)c(OC)c1 (stereo not shown) [3-hydroxy-1-(4-hydroxy-3-methoxyphenyl)decan-1-one] | 125±3 mV | 176 ± 17 ms | 270 ± 26 ms | 524±66 V/s | 127±4 mV | 157 ± 23 ms | 257 ± 25 ms | 527±78 V/s | 123±6 mV | 124 ± 16 ms | 245 ± 17 ms | 521±87 V/s | 115±7 mV | 94 ± 10 ms | 212 ± 21 ms | 423±45 V/s | 117±7 mV | 81 ± 10 ms | 201 ± 13 ms | 442±61 V/s | Action Potential Amplitude (cardiac Purkinje fibres; 50 µM): 110±9 mV; Action Potential Duration 50% repolarisation (cardiac Purkinje fibres; 50 µM): 55 ± 4 ms; Action Potential Duration 90% repolarisation (cardiac Purkinje fibres; 50 µM): 188 ± 19 ms; Maximum rate of depolarisation (cardiac Purkinje fibres; 50 µM): 363±74 V/s; reduction of action potential duration at 50% repolarisation (cardiac Purkinje fibres; 50 µM): 75%; reduction of action potential duration at 90% repolarisation (cardiac Purkinje fibres; 50 µM): 30%; effect on rate of depolarization, amplitude of action potential and duration of action potential at 50% and 90% repolarization (cardiac Purkinje fibres; listed as 3.92): insignificant effect; also recorded: only a small effect; diaphragm rat ↓ (diaphragm rat; 3x10^-5 M): ↓10% 3x10^-5 M; diaphragm rat (diaphragm rat; result in words with concentration): no effect 10^-5 M
3 | CCCCCCCC(O)CC(=O)CCc1ccc(O)c(OC)c1 (stereo not shown) [[8]-gingerol, 5-hydroxy-1-(4-hydroxy-3-methoxyphenyl)dodecan-3-one, reference compound] | 124±2 mV | 242 ± 20 ms | 363 ± 27 ms | 532±42 V/s | 120±4 mV | 207 ± 20 ms | 339 ± 26 ms | 483±41 V/s | 119±2 mV | 142 ± 20 ms | 285 ± 26 ms | 499±41 V/s | 114±3 mV | 107 ± 17 ms | 248 ± 25 ms | 443±45 V/s | 116±4 mV | 88 ± 15 ms | 229 ± 22 ms | 516±67 V/s | duration of increased cardiac contractility [4]: 10 min; increased cardiac contractility [4]: about 30%; Action Potential Amplitude (cardiac Purkinje fibres; 50 µM): 109±8 mV; Action Potential Duration 50% repolarisation (cardiac Purkinje fibres; 50 µM): 76 ± 12 ms; Action Potential Duration 90% repolarisation (cardiac Purkinje fibres; 50 µM): 221 ± 19 ms; Maximum rate of depolarisation (cardiac Purkinje fibres; 50 µM): 471±73 V/s; reduction of action potential duration at 50% repolarisation (cardiac Purkinje fibres; 50 µM): ~80%; reduction of action potential duration at 90% repolarisation (cardiac Purkinje fibres; 50 µM): ~50%; effect on rate of depolarization, amplitude of action potential and duration of action potential at 50% and 90% repolarization (cardiac Purkinje fibres): insignificant effect
